From patent publication US9926277B2, “Pyridone compounds, pharmaceutical compositions thereof, and their therapeutic use for treating proliferative diseases” (BioTheryX, Inc., priority 2015, dated 2018)

Test system: MDA-MB-231 cells
Assay: Viability of MDA-MB-231 cancer cells (CELLTITER, Example B5)
Type: cell-based
Conditions: Homo sapiens, 72 hours incubation, read-out: Cell Viability (%); for viability at 0.005 µM: Conc. 5 nM; for viability at 0.01 µM: Conc. 10 nM; for viability at 0.02 µM: Conc. 20 nM
Method: Compounds A1 and A3 to A6 were tested for their ability to reduce the viability of MDA-MB-231 cells, along with ciclopirox (CPX). MDA-MB-231 is a metastatic human breast cancer cell line. […] Seventy-two hours after incubation, cell viability was measured using CELLTITER® from Promega.

## Cc1cc(C2CCCCC2)n(O)c(=O)c1 [CPX, ciclopirox, reference compound]
Conc. 3 nM
  viability at 0.003 µM: 60.3 ± 2%
  viability at 0.005 µM: 43.4 ± 2.2%
  viability at 0.01 µM: 46.3 ± 11.1%
  viability at 0.02 µM: 20.9 ± 1.5%

## Cc1cc(C2CCCCC2)n(OS(=O)(=O)c2ccccc2)c(=O)c1 [Compound A1, 6-cyclohexyl-4-methyl-2-oxopyridin-1(2H)-yl benzenesulfonate]
  viability at 0.005 µM: 46.8 ± 8%
  viability at 0.01 µM: 31.1 ± 5.4%
  viability at 0.02 µM: 22.1 ± 4.9%

## Cc1cc(C2CCCCC2)n(OS(=O)(=O)c2ccc(C(C)C)cc2)c(=O)c1 [Compound A3, 6-Cyclohexyl-4-methyl-2-oxopyridin-1(2H)-yl 4-isopropylbenzenesulfonate]
  viability at 0.005 µM: 48.3 ± 4.9%
  viability at 0.01 µM: 34.4 ± 6.9%
  viability at 0.02 µM: 28.4 ± 1.3%

## CCCS(=O)(=O)On1c(C2CCCCC2)cc(C)cc1=O [Compound A4, 6-Cyclohexyl-4-methyl-2-oxopyridin-1(2H)-yl propane-1-sulfonate]
  viability at 0.005 µM: 40.5 ± 11.4%
  viability at 0.01 µM: 32.3 ± 0.6%
  viability at 0.02 µM: 29.2 ± 1.7%

## Cc1cc(C2CCCCC2)n(OS(=O)(=O)c2c(C(C)C)cc(C(C)C)cc2C(C)C)c(=O)c1 [Compound A5, 6-Cyclohexyl-4-methyl-2-oxopyridin-1(2H)-yl 2,4,6-triisopropylbenzenesulfonate]
  viability at 0.005 µM: 62.9 ± 9.6%
  viability at 0.01 µM: 50.6 ± 6.2%
  viability at 0.02 µM: 40.6 ± 7.1%

## Cc1cc(C2CCCCC2)n(OS(=O)(=O)c2cccs2)c(=O)c1 [Compound A6, 6-Cyclohexyl-4-methyl-2-oxopyridin-1(2H)-yl thiophene-2-sulfonate]
  viability at 0.005 µM: 26.7 ± 4%
  viability at 0.01 µM: 31.4 ± 8.4%
  viability at 0.02 µM: 22.1 ± 3.6%
